Test results published in patent US20100267629A1, “Enterostatin as Therapeutic Agent for Hypoglycemia” (Board of Supervisors of Louisiana State University and …, priority 2006, published 2010).

Assays:
F1-ATPase β-subunit = F1-ATPase β-subunit (Homo sapiens, UniProt P06576); details: effect of the analog on binding of 125I-β-casomorphin1-7 to F1-ATPase β-subunit; cited from earlier work
rats = details: in overnight fasted rats; cited from earlier work
AMPK = experiment: pAMPK Western blot in HepG2 cells, 15 min incubation; type: cell-based, human
Description: Human liver cells (HepG2 cell line, American Type Culture Collection, Manassas, Va.) were grown and maintained in Dulbecco's modified eagle's medium (Gibco, Carlsbad, Calif.) containing 10% fetal bovine serum, penicillin (100 I.U./ml), and streptomycin (100 μg/ml). The cells were then incubated for 15 min with 5 mM glucose and various concentrations of enterostatin (0.003, 0.01, 0.1, 1, and 3 μM) and/or of its antagonist β-casomorphin (BCM) (0.003, 0.01, 0.1, 1, and 3 μM). After incubation, the cells were lysed and the cytosolic proteins subjected to Western blot analysis for AMPK and pAMPK. The results for pAMPK activity are shown in FIG. 5A (enterostatin) and FIG. 5B (BCM). […] This effect was blocked by the presence of an antibody to the enterostatin receptor (anti F1-ATPase beta subunit).

[1] = in vivo; cited from earlier work

Chain of F1-ATPase β-subunit (P06576 48-529): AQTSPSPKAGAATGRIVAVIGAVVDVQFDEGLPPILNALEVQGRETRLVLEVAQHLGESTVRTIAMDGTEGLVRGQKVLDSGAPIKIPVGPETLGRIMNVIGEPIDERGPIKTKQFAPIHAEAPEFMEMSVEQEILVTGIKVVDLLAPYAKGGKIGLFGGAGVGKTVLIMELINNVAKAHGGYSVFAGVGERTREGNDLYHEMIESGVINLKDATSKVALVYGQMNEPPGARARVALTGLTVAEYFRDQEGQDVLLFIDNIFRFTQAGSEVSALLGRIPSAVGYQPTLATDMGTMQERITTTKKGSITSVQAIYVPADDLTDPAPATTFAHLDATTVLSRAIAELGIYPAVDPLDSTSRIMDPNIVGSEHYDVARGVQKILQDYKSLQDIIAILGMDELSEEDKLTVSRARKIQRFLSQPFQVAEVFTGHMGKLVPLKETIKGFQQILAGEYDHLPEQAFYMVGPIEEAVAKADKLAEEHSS

In the case of PGPCY, the “Binding of 125I-β-casomorphin1-7” value (F1-ATPase β-subunit) is given as “Increased” and the “Intake of high fat diet” value (rats) is given as “No changes”.

In the case of APGPR, the “Binding of 125I-β-casomorphin1-7” value (F1-ATPase β-subunit) is listed as “Increased” and the “Intake of high fat diet” value (rats) is listed as “Suppression”.

In the case of YVPDPR, the “Binding of 125I-β-casomorphin1-7” value (F1-ATPase β-subunit) is given as “Increased” and the “Intake of high fat diet” value (rats) is given as “Suppression”.

For VPDPR-NH2, the “Binding of 125I-β-casomorphin1-7” value (F1-ATPase β-subunit) is listed as “Displaced” and the “Intake of high fat diet” value (rats) is listed as “No changes”.

For DPGPR, the “Binding of 125I-β-casomorphin1-7” value (F1-ATPase β-subunit) is given as “Displaced” and the “Intake of high fat diet” value (rats) is given as “No changes”.

In the case of CYDPGPR [enterostatin analog], the “Binding of 125I-β-casomorphin1-7” value (F1-ATPase β-subunit) is given as “Displaced” and the “Intake of high fat diet” value (rats) is given as “Stimulation”.

In the case of YPDPR, the “Binding of 125I-β-casomorphin1-7” value (F1-ATPase β-subunit) is listed as “Increased” and the “Intake of high fat diet” value (rats) is listed as “Suppression”.

For β-casomorphin [reference compound], the pAMPK levels (AMPK; HepG2, 0.1 or 1.0 μM, 15 min) was “increased pAMPK levels”, the “Effect on pAMPK in presence of antibody anti F1-ATPase beta subunit” value (AMPK; HepG2, 15 min, 5 mM glucose) was “blocked this effect” and the “AMPkinase activity shown by pAMPK” value (AMPK; HepG2, 15 min, 5 mM glucose, 0.003-3 μM) was “activated AMPkinase”.

For CYAPGPR [enterostatin analog], the “Binding of 125I-β-casomorphin1-7” value (F1-ATPase β-subunit) is listed as “Displaced” and the “Intake of high fat diet” value (rats) is listed as “Stimulation”.

For APGPRCY [enterostatin analog], the “Binding of 125I-β-casomorphin1-7” value (F1-ATPase β-subunit) is given as “Increased” and the “Intake of high fat diet” value (rats) is given as “Suppression”.

For YPFPGPI [enterostatin analog], the “Binding of 125I-β-casomorphin1-7” value (F1-ATPase β-subunit) is listed as “Displaced” and the “Intake of high fat diet” value (rats) is listed as “Stimulation”.

For VPDPRCY [enterostatin analog], the “Binding of 125I-β-casomorphin1-7” value (F1-ATPase β-subunit) is listed as “Increased” and the “Intake of high fat diet” value (rats) is listed as “Suppression”.

In the case of “Glucagon: drug for severe hypoglycemia that stimulates the liver to release large amounts of glucose”, the “Time to restore blood sugar” value [1] is given as 5 to 15 min.

In the case of `CC1=NS(=O)(=O)c2cc(Cl)ccc2N1` [Diazoxide, diazoxide], the Duration of action [1] is given as “about 8 hr” and the “Time to act (increase of blood sugar)” value [1] is given as no more than 1 h.

For PDP, the “Binding of 125I-β-casomorphin1-7” value (F1-ATPase β-subunit) is given as “Increased” and the “Intake of high fat diet” value (rats) is given as “Suppression”.

In the case of APGPRY, the “Binding of 125I-β-casomorphin1-7” value (F1-ATPase β-subunit) is listed as “Increased” and the “Intake of high fat diet” value (rats) is listed as “No changes”.

In the case of YGGAPGPR [enterostatin analog], the “Binding of 125I-β-casomorphin1-7” value (F1-ATPase β-subunit) is given as “Increased” and the “Intake of high fat diet” value (rats) is given as “Suppression”.

For YPGPR, the “Binding of 125I-β-casomorphin1-7” value (F1-ATPase β-subunit) is listed as “Increased” and the “Intake of high fat diet” value (rats) is listed as “Suppression”.

For PGP, the “Binding of 125I-β-casomorphin1-7” value (F1-ATPase β-subunit) is listed as “Increased” and the “Intake of high fat diet” value (rats) is listed as “No changes”.

In the case of VPDPR, the “Binding of 125I-β-casomorphin1-7” value (F1-ATPase β-subunit) is given as “Increased” and the “Intake of high fat diet” value (rats) is given as “Suppression”.

For cyclo-HP, the “Intake of high fat diet” value (rats) is listed as “^bOnly inhibits food intake as cyclo-HP”.

For APGPY, the “Binding of 125I-β-casomorphin1-7” value (F1-ATPase β-subunit) is given as “Increased” and the “Intake of high fat diet” value (rats) is given as “Suppression”.
